Earlier results in US11771641B2, “Method for dyeing keratinous material by means of a premix of aminosilicone and a chromophoric compound” (Henkel AG & Co. KGaA, priority 2019, dated 2023).

Settings: 25° C.

Row | Structure (SMILES) | solubility in water | solubility in water (in words)
1 | CCN(Cc1cccc(S(=O)(=O)O)c1)c1ccc(C(=C2C=CC(=[N+](CC)Cc3cccc(S(=O)(=O)O)c3)C=C2)c2ccccc2S(=O)(=O)[O-])cc1 [Acid Blue 9] | more than 20 % by weight | 
2 | O=S(=O)(O)c1ccc(N=Nc2c(O)ccc3ccccc23)cc1 [Acid Orange 7, 4-[(2-hydroxy-1-naphthyl)azo]benzene sulphonate] | more than 7 g/L | 
3 | O=[N+]([O-])c1cc([N+](=O)[O-])c2ccc(S(=O)(=O)O)cc2c1O [Acid Yellow 9, 8-hydroxy-5,7-dinitro-2-naphthalenesulfonic acid] | above 40 g/L | 
4 | O=C(O)C1=NN(c2ccc(S(=O)(=O)O)cc2)C(=O)C1N=Nc1ccc(S(=O)(=O)O)cc1 (stereo not shown) [Acid Yellow 23, 4,5-dihydro-5-oxo-1-(4-sulfophenyl)-4-((4-sulfophenyl)azo)-1H-pyrazole-3-carboxylic acid] |  | highly soluble
